Assay results reported in US6858741B2, “Alkyl-dihalogenated phenyl-substituted ketoenols useful as pesticides and herbicides” (Bayer Aktiengesellschaft, priority 1995, dated 2005).

Legend:
Type in all cases: in vivo
[1] = test system: mustard beetle larvae (Phaedon cochleariae); test: Phaedon larvae test; settings: after 7 days; active compound concentration 0.1%; dipped cabbage leaves
Experimental: (§1) [table] To produce a suitable preparation of active compound, 1 part by weight of active compound is mixed with the stated amount of solvent and the stated amount of emulsifier, and the concentrate is diluted with water to the desired concentration. Cabbage leaves (Brassica oleracea) are treated by being dipped into the preparation of the active compound of the desired concentration and are infested with mustard beetle larvae (Phaedon cochleariae) while the leaves are still moist. After the specified period of time, the destruction in % is determined. 100% means that all the beetle larvae have been killed; 0% means that none of the beetle larvae have been killed.

[2] = test system: green rice leafhopper (Nephotettix cincticeps); test: Nephotettix test; settings: after 6 days; active compound concentration 0.1%; dipped rice seedlings
Experimental: [table] To produce a suitable preparation of active compound, 1 part by weight of active compound is mixed with the stated amount of solvent and the stated amount of emulsifier, and the concentrate is diluted with water to the desired concentration. Rice seedlings (Oryza sativa) are treated by being dipped into the preparation of active compound of the desired concentration and are infested with the green rice leafhopper (Nephotettix cincticeps) while the seedlings are still moist. After the specified period of time, the destruction in % is determined. 100% means that all the leafhoppers have been killed; 0% means that none of the leafhoppers have been killed.

test plants = test: Pre-emergence test/greenhouse; settings: greenhouse, 250 g/ha, rated after three weeks vs untreated control, 0%=no action, 100%=total destruction
Experimental: [table] To produce a suitable preparation of active compound, 1 part by weight of active compound is mixed with the stated amount of solvent, the stated amount of emulsifier is added and the concentrate is diluted with water to the desired concentration. Seeds of the test plants are sown in normal soil and, after 24 hours, watered with the preparation of the active compound. It is expedient to keep constant the amount of water per unit area The concentration of the active compound in the preparation is of no importance, only the amount of active compound applied per unit area being decisive. After three weeks, the degree of damage to the plants is rated in % damage in comparison to the development of the untreated control. The figures denote: • 0%=no action (like untreated control) 100%=total destruction [table]

[3] = test system: caterpillars of the diamond-back moth (Plutella maculipennis); test: Plutella test; settings: after 7 days; active compound concentration 0.1%; dipped cabbage leaves
Experimental: as §1, with “preparation of active compound” for “preparation of the active compound”, “infested with caterpillars of the diamond-back moth (Plutella maculipennis) while the” for “infested with mustard beetle larvae (Phaedon cochleariae) while the”, “all the caterpillars have been” for “all the beetle larvae have been”, “of the caterpillars have been” for “of the beetle larvae have been”

[4] = test system: greenhouse red spider mite or two-spotted spider-mite (Tetranychus urticae); test: Tetranychus test (OP-resistant/immersion treatment); settings: after 13 days; active compound concentration 0.1%; immersion treatment of bean plants
Experimental: [table] To produce a suitable preparation of active compound, 1 part by weight of active compound is mixed with the stated amount of solvent and the stated amount of emulsifier, and the concentrate is diluted with water to the desired concentrations. Bean plants (Phaseolus vulgaris) which are severely infested with all development stages of the greenhouse red spider mite or two-spotted spider-mite (Tetranychus urticae) are immersed in a preparation of active compound of the desired concentration. After the specified period of time, the destruction in % is determined. 100% means that all the spider mites have been killed; 0% means that none of the spider mites have been killed.

SMILES | destruction [1] | destruction [2] | degree of damage, Alopecurus myosuroides (test plants) | degree of damage, Avena fatua (test plants) | degree of damage, Beta vulgaris (test plants) | degree of damage, Setaria viridis (test plants) | destruction [3] | degree of damage, Sinapis arvensis (test plants) | activity (destruction) [4] | degree of damage, Amaranthus (test plants)
Cc1cc(Cl)cc(Cl)c1C1=C(O)C2(CCCC(C)C2)NC1=O (single isomer, unassigned) [Example I-1-a-2] | 100% | 100% | 100% | 90% | 0% | 100% |  |  |  | 
Cc1cc(Cl)cc(Cl)c1C1=C(O)C2(CCC(C)CC2)NC1=O (single isomer, unassigned) [Example I-1-a-4] |  | 100% | 100% | 100% | 0% | 100% | 100% | 95% |  | 
Cc1cc(Cl)c(C2=C(O)C3(CCCC(C)C3)NC2=O)c(Cl)c1 (single isomer, unassigned) [Example I-1-a-8] | 100% | 100% | 100% | 40% |  | 100% |  | 100% |  | 
CC(=O)OC1=C(c2c(C)cc(Cl)cc2Cl)C(=O)NC12CCCC(C)C2 (single isomer, unassigned) [Example I-1-b-2] |  |  | 100% | 80% | 0% | 100% | 100% | 70% |  | 
CCOCC(=O)OC1=C(c2c(C)cc(Cl)cc2Cl)C(=O)NC12CCCC(C)C2 (single isomer, unassigned) [Example I-1-b-4] |  |  | 95% | 80% | 0% | 100% |  | 80% |  | 
CC(=O)OC1=C(c2c(C)cc(Cl)cc2Cl)C(=O)NC12CCC(C)CC2 (single isomer, unassigned) [Example I-1-b-10] |  | 100% | 100% | 100% | 20% | 100% |  | 100% | 100% | 
Cc1cc(Cl)cc(Cl)c1C1=C(OC(=O)C(C)C)C2(CCC(C)CC2)NC1=O (single isomer, unassigned) [Example I-1-b-11] |  |  | 95% | 40% | 30% | 100% |  | 90% |  | 
Cc1cc(Cl)cc(Cl)c1C1=C(OC(=O)c2ccc(Cl)cc2)C2(CCC(C)CC2)NC1=O (single isomer, unassigned) [Example I-1-b-12] |  |  | 100% | 80% | 20% | 100% |  | 95% |  | 
COCC(C)C(=O)OC1=C(c2c(C)cc(Cl)cc2Cl)C(=O)NC12CCC(C)CC2 (single isomer, unassigned) [Example I-1-b-13] |  |  | 100% | 80% | 30% | 100% |  | 90% |  | 
Cc1cc(Cl)c(C2=C(OC(=O)C(C)C)C3(CCCC(C)C3)NC2=O)c(Cl)c1 (single isomer, unassigned) [Example I-1-b-20] |  |  | 95% |  | 30% | 90% |  | 80% |  | 
CCOC(=O)OC1=C(c2c(C)cc(Cl)cc2Cl)C(=O)NC12CCCC(C)C2 (single isomer, unassigned) [Example I-1-c-2] |  |  |  |  |  |  | 100% |  |  | 
CCOC(=O)OC1=C(c2c(Cl)cc(C)cc2Cl)C(=O)NC12CCC(C)CC2 (single isomer, unassigned) [Example I-1-c-6] |  |  | 100% | 100% |  | 100% |  | 95% |  | 
CCOC(=O)OC1=C(c2c(Cl)cc(C)cc2Cl)C(=O)NC12CCCC(C)C2 (single isomer, unassigned) [Example I-1-c-7] |  |  | 100% | 80% | 0% | 100% |  | 80% |  | 
Cc1cc(Cl)cc(Cl)c1C1=C(OC(=O)OCC(C)C)C2(CCC(C)CC2)NC1=O (single isomer, unassigned) [Example I-1-c-13] |  | 100% |  |  |  |  |  |  |  | 
Cc1cc(Cl)cc(Cl)c1C1=C(O)C2(CCCCC2)NC1=O [Example I-1-a-3] |  | 100% | 100% |  | 0% | 100% | 100% | 80% |  | 
Cc1cc(Cl)c(C2=C(O)C3(CCCCC3)NC2=O)c(Cl)c1 [Example I-1-a-9] | 100% | 100% |  |  |  |  |  |  |  | 
Cc1cc(Cl)c(C2=C(O)C(C)(C(C)C)NC2=O)c(Cl)c1 (centres unmarked) [Example I-1-a-11] | 100% | 100% |  |  |  |  |  |  |  | 
Cc1cc(Cl)cc(Cl)c1C1=C(OC(=O)C(C)C)C2(CCCCC2)NC1=O [Example I-1-b-8] |  |  | 95% | 50% | 0% | 100% |  | 100% |  | 
CCOC(=O)OC1=C(c2c(C)cc(Cl)cc2Cl)C(=O)NC12CCCCC2 [Example I-1-c-3] |  | 100% | 80% | 80% | 30% | 100% |  | 100% |  | 
CCC1(C)SC(=O)C(c2c(C)cc(Cl)cc2Cl)=C1O (centres unmarked) [Example I-3-a-1] | 100% |  |  |  |  |  | 100% |  |  | 
Cc1cc(Cl)cc(Cl)c1C1=C(O)C2(CCCCC2)SC1=O [Example I-3-a-3] | 100% |  |  |  |  |  | 100% |  |  | 
Cc1cc(Cl)c(C2=C(OC(=O)OCC(C)C)C3(CCCCC3)SC2=O)c(Cl)c1 [Example I-3-c-1] |  |  |  |  | 0% |  |  |  | 100% | 70%
Cc1cc(Cl)c(-c2c(O)c(C)c(C3CCCC3)oc2=O)c(Cl)c1 [I-5-a-7] |  |  | 80% |  | 0% |  |  | 95% |  | 
